Experimental data from article PMC8533176, “1,5-Benzodiazepin-2(3H)-ones: In Vitro Evaluation as Antiparkinsonian Agents” (Antioxidants, 2021).
Where two headings read alike, the source gives them in different places.

Legend:
HepG2 cells = assay: Cytotoxicity, MTT assay, HepG2; format: cell-based; details: Homo sapiens
Procedure: (§1) All compounds tested were dissolved and eventually further diluted in dimethylsulfoxide (DMSO). After overnight incubation, the cells were treated with different compound concentrations (5, 10, 20, 50, 100, 150, 200 µM) in a final volume of 200 µL with four replicates each. […] Cell proliferation or viability was measured using the 3-(4,5-dimethylthiazol-2-yl)-2,5-diphenyl tetrazolium bromide (MTT) assay. The MTT assay was optimized taking into account the number of cells plated per well, to work in the linear part of the cell density vs. MTT absorbance calibration curve, which allows achieving a maximum absorbance in the range of 0.8–1.0 in each well at the end of the experiment. In addition to that, the number of cells seeded for each experiment was optimized in agreement with the time scale of the experiment.
(§2) After cell treatment, 20 µL of MTT (5 mg/mL) was added to each well, and the plate was incubated at 37 °C in the dark for 2 h. Supernatants were removed, and the formazan crystals were solubilized in DMSO (200 µL/well), under 10 min shaking at room temperature. The reduction of MTT was quantified by absorbance at 570 nm in a Varioskan microplate reader (Thermo Fisher Scientific, Vantaa, Finland). Effects of the test compounds on cell viability were calculated using cells treated with a vehicle as a control. For IC50 and LD50 calculations, the data were subjected to linear regression analysis, and the regression lines were plotted for the best fit. The IC50 (inhibition of cell viability) concentrations were calculated using the respective dose–response curves.

SH-SY5Y cells = assay: Cytotoxicity, MTT assay, SH-SY5Y; format: cell-based; details: Homo sapiens, read-out: SH-SY5Y IC50
Procedure: as §1, §2

[1] = Ferric reducing antioxidant power (FRAP) assay; format: biochemical; parameters: FRAP Assay Trolox Equivalents: unit not given here; details: for FRAP Assay Antioxidant Capacity (%) at 100 uM: compound at 100 uM; for FRAP Assay Antioxidant Capacity (%) at 200 uM: compound at 200 uM
Procedure: FRAP reagent was prepared by mixing 10 mL of 300 mM acetate buffer with 1 mL of 10 mM 2,4,6-tripyridyl-S-triazine (TPTZ) in HCl 40 mM and 1mL of FeCl3·6H2O 20 mM. […] Trolox was used as assay control.

[2] = Kinetic solubility by UV spectrometry; format: physicochemical; details: PBS 50 mM, aqueous buffer, kinetic from dmso stock
Procedure: A modified protocol was used from that described by Hoelke et al. for the determination of the kinetic solubility from DMSO compound solutions. A compound calibration curve (compound concentration vs UV absorption) was prepared for each compound with concentrations of 10, 20, 50, 100, and 200 µM. Each compound dilution was carried out by pipetting defined volumes of a 20 mM stock compound solution in DMSO into vials and adding PBS 50 mM to reach a final volume of 1 mL/well. The final amount of DMSO per well was 2%. For the lower compound concentrations, an additional volume of DMSO was added to each well to reach 2% DMSO. Then, 200 µL of each dilution was transferred to a new 96-well culture plate for the measurement of the UV-spectra. One well in each row was left without a compound as a blank, and its UV absorbance was used as an offset correction. The experiments were performed in duplicate.
In parallel, compound saturation solutions were reached and filtered from 20 mM compound stock in DMSO: 10 µL of a 20 mM stock solution was dispensed into 190 µL of PBS 10 mM. The solutions were mixed, shaken on a microplate shaker for two hours, and then 160 µL of each solution was filtered and transferred to a new well plate for UV absorption measurement.
Measurement of the UV-spectra was performed using a Varioskan microplate reader, and spectra were taken in the range of 270–600 nm. Spectral bandwidth was set to 5 nm, and the data pint interval was 10 nm. The experiments were carried out in triplicate.

[3] = ABTS radical scavenging assay; format: biochemical; details: for IC50: 30-min incubation; for ABTS Assay TEAC50: Equivalent antioxidant capacity at Trolox 50 mM; for ABTS Assay TEAC100: Equivalent antioxidant capacity at Trolox 100 mM
Procedure: The mixture was stored in the dark at room temperature for 16 h. […] All the compounds tested were dissolved in EtOH. […] The degree of decolorization was calculated as the percentage reduction of absorbance. […] Trolox was used as a reference antioxidant.

[4] = HepG2, MTT, cytotoxicity, read-out: HepG2 IC50

Row | SMILES | IC50 (HepG2 cells; [4]) [µM] | IC50 (SH-SY5Y cells; MTT, cytotoxicity) [µM] | FRAP Assay Trolox Equivalents [1] | FRAP Assay Antioxidant Capacity (%) at 100 uM [1] [%] | FRAP Assay Antioxidant Capacity (%) at 200 uM [1] [%] | solubility [2] [µM] | IC50 [3] [µM] | ABTS Assay TEAC50 [3] | ABTS Assay TEAC100 [3] | melting point [°C] | IC50 (HepG2 cells; HepG2, read-out: HepG2 IC50) [µM] | IC50 (SH-SY5Y cells) [µM]
1 | O=C1CC(c2ccccc2Cl)=Nc2c(F)c(F)c(F)c(F)c2N1 [Compound 7, 6,7,8,9-tetrafluoro-4-(2-chlorophenyl)-1H-1,5-benzodiazepin-2(3H)-one] | 201 ± 13.1 | 135 ± 11.2 | 0.01 | 0.6 | 0.4 | < 50 | 635 ± 87 | 0.35 | 0.16 | 211.7 | – | –
2 | CC1=Nc2c(F)c(F)c(F)c(F)c2NC(=O)C1 [Compound 1, 6,7,8,9-Tetrafluoro-4-methyl-1H-1,5-benzodiazepin-2(3H)-one] | > 250 | > 250 | 0.01 | 0.5 | 0.5 | > 200 | 576 ± 40 | 0.33 | 0.16 | 155.2 | – | –
3 | CN1C(=O)CC(c2ccccc2)=Nc2ccc(F)cc21 [Compound 12, 8-Fluoro-1-methyl-4-phenyl-1H-1,5-benzodiazepin-2(3H)-one] | – | – | 0.02 | 0.8 | 1.4 | > 200 | > 1000 | – | – | – | 230 ± 25.5 | 240 ± 24.9
4 | CC1=Nc2c(F)c(F)c(F)c(F)c2N(C)C(=O)C1 [Compound 2, 6,7,8,9-tetrafluoro-1,4-dimethyl-1H-1,5-benzodiazepin-2(3H)-one] | > 250 | > 250 | 0.02 | 1.00 | 0.5 | > 200 | > 1000 | – | – | 132.2 | – | –
5 | COc1cc(C2=Nc3cc(Cl)c(Cl)cc3NC(=O)C2)cc(OC)c1OC [Compound 23, 7,8-Dichloro-4-(3,4,5-trimethoxyphenyl)-1H-1,5-benzodiazepin-2(3H)-one] | – | > 250 | 0.03 | 2.7 | 4.6 | < 20 | > 500 | – | – | 246 | – | –
6 | CN1C(=O)CC(c2ccccc2)=Nc2ccccc21 [Compound 19, 1-Methyl-4-phenyl-1H-1,5-benzodiazepin-2(3H)-one] | – | – | 0.03 | 1.7 | 3.5 | > 200 | > 1000 | – | – | – | > 250 | 201 ± 27
7 | CN1C(=O)CC(c2ccccc2F)=Nc2c(F)c(F)c(F)c(F)c21 [Compound 6, 6,7,8,9-tetrafluoro-4-(2-fluorophenyl)-1-methyl-1H-1,5-benzodiazepin-2(3H)-one] | – | – | 0.02 | 1.1 | 1.6 | < 200 | > 1000 | – | – | 142.6 | > 250 | > 250
8 | O=C1CC(c2ccccc2F)=Nc2c(F)c(F)c(F)c(F)c2N1 [Compound 5, 6,7,8,9-tetrafluoro-4-(2-fluorophenyl)-1H-1,5-benzodiazepin-2(3H)-one] | > 250 | > 250 | 0.03 | 1.4 | 5.5 | < 20 | 658 ± 96 | 0.32 | 0.15 | 248.1 | – | –
9 | O=C1CC(c2ccccc2)=Nc2cc(F)cc(F)c2N1 [Compound 15, 7,9-Difluoro-4-phenyl-1H-1,5-benzodiazepin-2(3H)-one] | > 250 | > 250 | 0.07 | 3.8 | 6.2 | < 10 | 496 ± 82 | 0.34 | 0.15 | – | – | –
10 | CN1C(=O)CC(c2ccccc2Cl)=Nc2c(F)c(F)c(F)c(F)c21 [Compound 8, 6,7,8,9-tetrafluoro-4-(2-chlorophenyl)-1-methyl-1H-1,5-benzodiazepin-2(3H)-one] | – | – | 0.01 | 0.6 | 0.2 | < 100 | > 1000 | – | – | 128.7 | 207 ± 27 | 150 ± 17
11 | CN1C(=O)CC(c2ccccc2)=Nc2cc(F)cc(F)c21 [Compound 16, 7,9-Difluoro-1-methyl-4-phenyl-1H-1,5-benzodiazepin-2(3H)-one] | > 250 | > 250 | 0.00 | 0 | 0 | > 200 | > 1000 | – | – | – | – | –
12 | O=C1CC(c2ccccc2)=Nc2c(F)c(F)c(F)c(F)c2N1 [Compound 3, 6,7,8,9-tetrafluoro-4-phenyl-1H-1,5-benzodiazepin-2(3H)-one] | > 250 | > 250 | 0.03 | 1.5 | 1.8 | < 100 | > 1000 | – | – | 253.3 | – | –
13 | CN1C(=O)CC(c2ccccc2)=Nc2cc(F)ccc21 [Compound 14, 7-Fluoro-1-methyl-4-phenyl-1H-1,5-benzodiazepin-2(3H)-one] | – | – | 0.01 | 0.3 | 0.6 | > 200 | > 1000 | – | – | 107.7 | 233 ± 18.7 | 220 ± 27.9
14 | COc1cc(C2=Nc3cc(C)c(C)cc3NC(=O)C2)cc(OC)c1OC [Compound 21, 7,8-Dimethyl-4-(3,4,5-trimethoxyphenyl)-1H-1,5-benzodiazepin-2(3H)-one] | > 250 | > 250 | 0.89 | 47.2 | 60.9 | < 100 | 137 ± 5.3 | 0.36 | 0.21 | 208.5 | – | –
15 | Cc1c(C)c2c(c(C)c1O)CCC(C)(C(=O)O)O2 (stereo not shown) [Trolox, reference compound] | – | – | 1 | 51.3 | 100 | – | 25.1 ± 1.2 | 1 | 1 | – | – | –
16 | CN1C(=O)CC(c2ccccc2)=Nc2c(F)c(F)c(F)c(F)c21 [Compound 4, 6,7,8,9-tetrafluoro-4-phenyl-1-methyl-1H-1,5-benzodiazepin-2(3H)-one] | > 250 | > 250 | 0.02 | 1.1 | 1.3 | – | > 1000 | – | – | 133.7 | – | –
